For one test, the system named is U87 glioblastoma cells. Nature of the test: MTT antiproliferative assay, U87. The format is cell-based, human. The protocol:
(§1) As part of the ongoing efforts aimed at identification of compounds active against cancer cells displaying resistance to proapoptotic agents, the selected 2-aryl-2-(3-indolyl)-acetohydroxamates were evaluated for in vitro growth inhibition against a panel of additional cancer cell lines including those resistant to various proapoptotic stimuli, such as human T98G and U87 glioblastoma and human A549 non-small-cell-lung cancer (NSCLC), as well as an apoptosis-sensitive tumor model, such as human Hs683 anaplastic oligodendroglioma, used as a reference. The data reveal that for the most part these compounds retain the single-digit antiproliferatve GI50 values in this challenging cancer cell panel.
(§2) Human cancer cell lines were obtained from the American Type Culture Collection (ATCC, Manassas, Va., USA), the European Collection of Cell Culture (ECACC, Salisbury, UK) and the Deutsche Sammlung von Mikroorganismen and Zellkulturen (DSMZ, Braunschweig, Germany). Human cervical adenocarcinoma HeLa cells were cultured in DMEM supplemented with 10% fetal bovine serum (FBS). Human mammary carcinoma MCF-7 cells were cultured in RPMI supplemented with 10% FBS. The U87 cells (ATCC HTB-14) were cultured in DMEM culture medium, while the A549 cells (DSMZ ACC107) were cultured in RPMI culture medium supplemented with 10% heat-inactivated FBS. The glioblastoma multiforme Hs683 (ATCC HTB-138) and the T98G (ATCC CRL-1690) cell lines were cultivated in DMEM supplemented with 10% FBS. The Human uterine sarcoma MES-SA and MES-SA/Dx5 cells were cultured in RPMI-1640 medium supplemented with 10% FBS with MES SA/Dx5 maintained in the presence of 500 nM Doxorubicin (Sigma). SKMEL-28 cells (ATCC HTB72) and U373 glioblastoma cells (ECACC 08061901) were cultured in RPMI culture medium supplemented with 10% heat-inactivated FBS. Cell culture media were supplemented with 4 mM glutamine (Lonza code BE17-605E), 100 μg/mL gentamicin (Lonza code 17-5182), and penicillin-streptomycin (200 units/ml and 200 μg/ml) (Lonza code 17-602E). Neurosphere culture GBM 031810 was established using known methods and maintained in Neurobasal medium (Invitrogen Carlsbad, Calif.) with B27 supplement (20 ul/ml; Invitrogen), Glutamax (10 ul/ml; Invitrogen), fibroblast growth factor-2 (20 ng/ml; Peprotech, Rocky Hill, N.J., USA), epidermal growth factor (20 ng/ml; Peprotech), heparin (32 IE/ml; Sigma Aldrich, St. Louis, Mo.), and penicillin-streptomycin (1×, Invitrogen). Growth factors and heparin were renewed twice weekly. All cell lines were cultured in T25 flasks, maintained and grown at 37° C., 95% humidity, 5% CO2.
(§3) Antiproliferative properties of the synthesized compounds were evaluated by the MTT assay. All compounds were dissolved in DMSO at a concentration of either 100 mM or 50 mM prior to cell treatment. The cells were trypsinized and seeded at 4×10^3 cells per well into 96-well plates. The cells were grown for 24 h, treated with compounds at concentrations ranging from 0.001 to 100 μM and incubated for 48 h in 200 μL media. 20 μL of MTT reagent in serum free medium (5 mg/mL) was added to each well and incubated further for 2 h. Media was removed and the resulting formazan crystals were re-solubilized in 200 μL of DMSO. A490 was measured using a Molecular Devices Thermomax plate reader. The experiments were performed in quadruplicate and repeated at least twice for each compound per cell line. Cells treated with 0.1% DMSO were used as a negative control; 1 μM phenyl arsine oxide (PAO) was used as a positive control.
On the technique in general: Tetrazolium dyes change colour on reduction, which living cells bring about.

The next test deals with U373 glioblastoma cells. Nature of the test: Quantitative videomicroscopy, U373. The class given is cell-based, human. As to conditions: 25 μM. The protocol: To obtain insight into the effectiveness of 2-aryl-2-(3-indolyl)acetohydroxamates against apoptosis-resistant cancers, computer-assisted phase-contrast microscopy (quantitative videomicroscopy) was employed to observe the phenotypic morphological changes in cancer cells as they are treated with these compounds. […] Based on the phase contrast pictures obtained by means of quantitative videomicroscopy, a global growth ratio (GGR) was calculated, which corresponds to the ratio of the mean number of cells present in a given image captured in the experiment (in this case after 24, 48 and 72 h) to the number of cells present in the first image (at 0 h). The ratio obtained in the 3aafa-treated experiment was then divided by the ratio obtained in the control. […] Thus, the GGR calculations are consistent with the MTT colorimetric data and indicate that it is the cytostatic properties associated with the hydroxamates that are responsible for their antiproliferative effects against apoptosis-resistant cancer cells, at least at relevant concentrations (slightly above the GI50 values).
Human cancer cell lines were obtained from the American Type Culture Collection (ATCC, Manassas, Va., USA), the European Collection of Cell Culture (ECACC, Salisbury, UK) and the Deutsche Sammlung von Mikroorganismen and Zellkulturen (DSMZ, Braunschweig, Germany). […]

The subject of test [1] is MES-SA/Dx5 MDR uterine sarcoma cells. Nature of the test: MTT antiproliferative assay, MDR MES-SA/Dx5. The class given is cell-based, human. As to conditions: Homo sapiens, MES-SA/Dx5; 48 h treatment, MTT, ± SD; MDR line; read-out: GI50 in vitro, MES-SA/Dx5. As for the experimental part:
(§4) Compared with the intrinsic drug resistance, as described above for such cancers as glioblastoma and melanoma, a large variety of tumors can also develop resistance to anticancer drugs resulting in MDR as explained previously. To assess whether the hydroxamates can overcome this resistance mechanism, selected hydroxamates were tested against MDR cells (Table 4). The MDR uterine sarcoma cell line MES-SA/Dx5 was utilized for this experiment. This cell line was established from the parent uterine sarcoma MES-SA, grown in the presence of increasing concentrations of doxorubicin and known to be resistant to a number of P-gp substrates.
as §2, §3
Selection of the MES-SA/Dx5 cell line was done according to W. G. Harker and B. I. Sikic, Cancer Res. 1985, p. 45, 4091. The cells were split and allowed to adhere overnight. […] The cells were maintained at this DOX concentration until their growth rate reached that of the untreated cells.

A further test deals with T98G glioblastoma cells. Nature of the test: MTT antiproliferative assay, T98G. The format is cell-based. Particulars: Homo sapiens, 48 h treatment, ± SD, read-out: GI50 in vitro, T98G. As for the experimental part:
as §1, §2, §3

Test [2] concerns MES-SA uterine sarcoma cells. Nature of the test: MTT antiproliferative assay, MES-SA. The format is cell-based. As to conditions: Homo sapiens, 48 h treatment, ± SD, read-out: GI50 in vitro, MES-SA. The protocol: as §4, with “substrates. […] In contrast, there was only a small variation in the sensitivities of the two cell lines towards the hydroxamates indicating their potential to overcome clinical multi-drug resistance.” for “substrates.”
as §2, §3

From patent publication US9206124B2, “Treatment of drug-resistant cancer with 2-aryl-2-(3-indolyl) acetohydroxamates” (New Mexico Technical Research Foundation, priority 2013, dated 2015) come the findings set out here.

`O=C(NO)C(c1ccccc1)c1c(-c2ccc3ccccc3c2)[nH]c2ccccc12` (stereo not shown) [Compound 3aafa]: the “activity against cell populations resistant to proapoptotic agents, U87” value in the test with U87 glioblastoma cells (FIG. 3, increasing concentration) is given as “potent growth inhibitory properties against most of the cells”. The GI50 came to 9.5 ± 0.3 µM in the test with U87 glioblastoma cells (Homo sapiens, 48 h treatment, MTT, ± SD, read-out: GI50 in vitro, U87); 4 ± 1.1 µM in test [1]; 36.4 ± 1.9 µM in the test on T98G glioblastoma cells; 2 ± 0.2 µM in test [2]. In addition, the “phenotypic effect, U373” value in the test with U373 glioblastoma cells (slightly exceeding GI50, FIG. 4) is on record as “inhibits cancer cell proliferation without inducing cell death”. Also, the “global growth ratio (GGR), U373” value with U373 glioblastoma cells (72 h observation, treated/control) is on record as “ca. 0.3”.
